Where no end group is shown, it is not given here.
What was measured:
[1] = test system: neural stem cells collected from a rat; conditions: peptide 1 μM in culture broth, 24 hours
Experimental: That is, these sample peptides were added to a culture broth of neural stem cells collected from a rat, and incubated. The amount of peptide added was adjusted so that the peptide concentration within the culture broth became 1 μM for each peptide.
In addition, the same sample was subjected to evaluation with a neuronal differentiation induction marker. That is, using tubulin as a marker for identifying neurons, the presence or absence of tubulin (i.e., of neurons) in the culture broth was determined by a fluorescent antibody method that uses a fluorescent dye-labeled anti-tubulin antibody for identifying this tubulin. In addition, using glial fibrillary acidic protein (GFAP), which is a cytoskeletal protein in glial cells, as a marker for identifying glial cells, the presence or absence of GFAP (i.e., of glial cells) in the culture broth was determined by a fluorescent antibody method that uses a fluorescent dye-labeled anti-GFAP antibody for identifying this GFAP.

[2] = test system: human iPS cells (cell line: 201B2); assay: iPS cell membrane permeability of FITC-labeled peptides (FITC fluorescence intensity, confocal laser scanning microscopy); assay type: cell-based; conditions: 1 hour; for Relative Intensity (FITC fluorescence): relative to Comparative Sample 2 at 0.5 μM = 1, average of five measurements; for introduction into artificial pluripotent stem cells: 0.5 μM or 1 μM
Experimental: Next, the abilities of the three resulting synthesized peptides to pass through the cell membranes of artificial pluripotent stem cells (iPS cells) were investigated. Fluorescein isothiocyanate (FITC) was added beforehand to the N-terminus of each of the synthesized peptides.
The human iPS cells (cell line: 201B2) used in this example were procured from Kyoto University. The mouse embryo fibroblasts (cell line: SNL76/7) used as feeder cells were procured from ECACC, which supply the cells on commission from Dr. Allan Bradley.
The iPS cells thus acquired were cultured, using a human embryonic stem cell culture medium (DMEM/F12, containing 20% knockout serum replacement (KSR), 2 mM L-glutamine, 0.1 mM non-essential amino acids, 0.1 mM 2-mercaptoethanol, 50 units/50 μg/ml penicillin/streptomycin, and 4 ng/ml bFGF), in a 37° C., 5% CO2 environment on a gelatin-coated dish seeded with the above SNL feeder cells that had been mitomycin C-treated.
The cultured iPS cells were then treated with a CTK solution (containing 1 mg/ml collagenase IV, […], […] and 20% KSR), and recovered. Next, a suspension of microaggregates was prepared by pipetting, dispensed into each well of a commercial gelatin-coated 4-well chamber (culture) slide that had been seeded with mitomycin C-treated SNL feeder cells, and cultured in a 37° C., 5% CO2 environment for about 6 days.
The culture solution in each well was then replaced with a cell culture obtained by adding a peptide stock solution (1 mM) of any one of the above Sample 6 and Comparative Samples 1 and 2 that had been pre-labeled with FITC to a specified concentration (i.e., to a final concentration within the medium of 0.5 μM or 1 μM), and the cell culture was cultured for 1 hour in a 37° C., 5% CO2 environment.
Next, after washing with PBS, the cells within the wells were fixed with cold methanol, and were encapsulated using a DAPI-containing antifade reagent (Invitrogen).
Localization of the FITC-labeled peptides was confirmed using a confocal laser scanning microscope. Specifically, the FITC fluorescence intensity in each test group (the respective encapsulated samples to be measured) was measured by confocal laser scanning microscopic analysis. The measurement conditions were as follows.
Argon laser excitation wavelength: 488 nm
Objective lens: Plan-Apochromat 20×/0.75
The relative fluorescence intensity of each test group was calculated relative to a value of 1 for the fluorescence intensity of the test group in which Comparative Sample 2 was added to a final concentration within the culture medium of 0.5 μM. Measurement was independently carried out five times, and the average value of the five measurements was treated as the fluorescence intensity. In addition, micrographs obtained using a confocal laser scanning microscope to observe iPS cell cultures to which Sample 6 or Comparative Sample 2 was added to a final concentration of 1 μM (the above encapsulated test groups) are shown respectively in FIG. 7 (Sample 6 addition group) and FIG. 8 (Comparative Sample 2 addition group).

Substance	differentiation to glial cells (GFAP marker) [1]	neuronal differentiation (differentiation from neural stem cells to neurons, tubulin marker) [1]	Relative Intensity (FITC fluorescence) ([2]; 0.5 μM final concentration)	introduction into artificial pluripotent stem cells [2]	Relative Intensity (FITC fluorescence) ([2]; 1.0 μM final concentration)
KKRTLRKNDRKKR [Comparative Sample 1]	not observed	not observed			
RRRRRRRRRGTLKERCLQVVRSLVK [Comparative Sample 3, VHL peptide linked through a single glycine residue to the C-terminal end of polyarginine R9]			<1	substantially not introduced	2.8
SLQYLCRFVIRQYTRKKRTLRKNDRKKR-NH2 [Sample 2, SLQYLCRFVIRQYTR-KKRTLRKNDRKKR]	not observed				
TLKERCLQVVRSLVKKKRTLRKNDRKKR [Sample 6]			13.5		23.2
TLKERCLQVVRSLVKSRRHHCRSKAKRSRHH [Comparative Sample 2, VHL peptide linked to the N-terminal end of hPER1-NLS]			1	substantially not introduced	4.8
